The values that follow are results of earlier work, collected in patent US20220162327A1, “ANTI-CCR5 AGENTS AND METHODS OF TREATMENT THAT BLOCK CANCER METASTASIS OR ENHANCE CELL DEATH INDUCED BY DNA DAMAGING CHEMOTHERAPY” (CytoDyn Inc., priority 2019, published 2022).

Data set [1] has as its target T1, CCR5 (Homo sapiens, UniProt P51681). More on the design: endogenous in cells; host or cells: CD4+ T cells. To be noted: cited from earlier work.
The test system of data set [2] is breast cancer tumor model. To be noted: cited from earlier work.
The next data set has as its system CCL5. To be noted: human colorectal cancer liver metastasis; cited from earlier work.
In data set [3] the target is T1, CCR5. To be noted: activated human T cells, cited from earlier work.

T1 sequence (P51681 whole entry): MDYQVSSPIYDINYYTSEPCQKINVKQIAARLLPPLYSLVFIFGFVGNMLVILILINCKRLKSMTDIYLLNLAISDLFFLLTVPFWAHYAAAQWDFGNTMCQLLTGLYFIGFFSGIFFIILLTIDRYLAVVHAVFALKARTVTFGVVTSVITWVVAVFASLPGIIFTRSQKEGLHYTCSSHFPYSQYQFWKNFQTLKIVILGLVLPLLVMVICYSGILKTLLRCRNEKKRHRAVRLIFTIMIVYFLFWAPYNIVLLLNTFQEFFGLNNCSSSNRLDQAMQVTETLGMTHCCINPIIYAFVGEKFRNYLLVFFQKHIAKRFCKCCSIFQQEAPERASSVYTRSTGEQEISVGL

On to `COC[C@@H](c1ccc(C(F)(F)F)cc1)N1CCN(C2(C)CCN(C(=O)c3c(C)ncnc3C)CC2)C[C@@H]1C` [vicriviroc], for which, at CCR5 [1], the “cell killing mediated by DNA-damaging chemotherapeutic agents” value was “dramatically enhanced cell killing”.
Take maraviroc: in data set [2], the lung metastases entry is recorded as “effectively blocked lung metastases”. Further, the “effect on tumor-associated macrophages and tumor cells” value in the data set with CCL5 is “led to repolarization of tumor-associated macrophages and tumor cell death”. The “production of TNF-α and IFN-γ” value at CCR5 [3] (high doses) is “tends to decrease production of TNF-α and IFN-γ”. Also, on CCR5 [3], the “CCR5 and CCR2 internalization induced by CCL5 and CCL2” value is “can block CCR5 and CCR2 internalization processes induced by CCL5 and CCL2”; the “T cell chemotactic activities toward cognate ligands” value is listed as “inhibit T cell chemotactic activities”. The “cell killing mediated by DNA-damaging chemotherapeutic agents” value on CCR5 [1] is recorded as “dramatically enhanced cell killing”.
